This passage reports TGI results from PubChem BioAssay (NCI).

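Dose response: 5 concentrations. Exposure: 48 h. Format: 96-well plates. Endpoint: linear interpolation; highest concentration if not reached. TGI marks complete inhibition of growth.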 Where only a bound is given, the exact number is not on record here.

What all share (assay): NCI tumour cell line growth inhibition, 48 h
For assay [1], the system named is 786-0 renal.
For assay [2], the system named is RXF 393 renal.
Assay [3] relates to HCT-116 colon.
For assay [4], the system named is SNB-19 CNS.
Assay [5] has as its system HCT-15 colon.
For assay [6], the system named is SR leukemia.
Assay [7] relates to OVCAR-3 ovarian.
Assay [8] deals with SW-620 colon.
Assay [9] deals with NCI-H226 lung.
Assay [10] concerns SK-MEL-28 melanoma.
Assay [11] deals with U251 CNS.
In assay [12] the test system is SN12C renal.
The test system of assay [13] is M14 melanoma.
Assay [14] relates to CAKI-1 renal.
Assay [15] has as its system NCI-H522 lung.
Assay [16] concerns NCI/ADR-RES ovarian.
Assay [17] deals with OVCAR-5 ovarian.
The test system of assay [18] is UACC-257 melanoma.
Assay [19] deals with OVCAR-4 ovarian.
The subject of assay [20] is PC-3 prostate.

Take `O=[N+]([O-])c1ccc(NC(=S)Nc2ccccn2)cc1`: the TGI is > 59 µM in assay [1]; 17.8 µM in assay [2]; > 100 µM in assay [3]; > 100 µM in [4]; > 100 µM in assay [5]; > 100 µM in assay [6]. Further, the TGI in [7] was 99.4 µM; in [8], > 100 µM; in assay [9] it was > 64.2 µM; in assay [10], > 100 µM; in [11], > 100 µM; in [12] it was > 100 µM. The TGI in [13] is > 100 µM; in [14], 18.9 µM; in assay [15] it was > 100 µM; in assay [16], > 100 µM; in [17], > 100 µM; in assay [18] it was > 100 µM. The TGI in assay [19] and in assay [20] was > 100 µM throughout.

Turning to `O=C1NC(=NC2CCCCC2)C2(CCN(CCCC3(c4ccc(F)cc4)OCCO3)CC2)N1c1ccccc1`, the TGI came out at 30.2 µM in assay [1]; 31.1 µM in [2]; 24.7 µM in assay [3]; 35 µM in assay [4]; 36.9 µM in [5]; 31.4 µM in assay [6]. Besides, the TGI is 25.6 µM in assay [7]; 50.2 µM in assay [8]; 44.3 µM in assay [9]; 35.6 µM in assay [10]; 30.2 µM in assay [11]; 37.5 µM in [12]. The TGI was 41.5 µM in assay [13]; 50.3 µM in [14]; 34.1 µM in [15]; 66.8 µM in [16]; 30.7 µM in [17]; 28.7 µM in assay [18]. In addition, the TGI in [19] was 50.2 µM; in assay [20], 38.4 µM.

`COc1ccc(/C=C2\CN(C)CC3C2=NC(=S)NC3c2ccc(OC)cc2)cc1` (stereo not given): the TGI in [1] was > 68.5 µM; in [2] it was 7.49 µM; in assay [3] it was > 44.7 µM; in assay [4], > 100 µM; in assay [5], > 100 µM; in [6], > 100 µM. Also, the TGI in assay [7] is 10.3 µM; in assay [8], > 100 µM; in assay [9] it was > 100 µM; in [10], > 100 µM; in [11] it was > 52.6 µM; in [12] it was > 100 µM. Further, the TGI is 15.8 µM in assay [13]; > 100 µM in [14]; > 20.8 µM in [15]; 19.1 µM in [16]; > 86 µM in assay [17]; > 100 µM in assay [18]. For the same compound, the values for the TGI in assay [19] and in assay [20] were > 70.8 µM and > 50 µM, respectively.

As to `CCSC(=O)/C=C1\CN(C(=O)OC(C)(C)C)C1C(=O)OC(C)(C)C` (stereo not given), the TGI in assay [1] stood at 6.23 µM; in assay [2], 3.76 µM; in assay [3], 3 µM; in assay [4], 25.5 µM; in assay [5], 3.93 µM; in assay [6], 2.48 µM. Besides, the TGI is 6.13 µM in [7]; 4.1 µM in [8]; 27.5 µM in [9]; 3.67 µM in assay [10]; 19.2 µM in assay [11]; 7.06 µM in assay [12]. Further, the TGI in assay [13] is 3.98 µM; in assay [14], 13.3 µM; in assay [15], 5.79 µM; in [16], > 23.7 µM; in assay [17], 14.3 µM; in assay [18], 8.91 µM. Moreover, the figures for the TGI in [19] and in assay [20] were 7.44 µM and 18.1 µM, respectively.

As to `COc1cc(-c2oc(C=Nc3ccccc3)c([N+](=O)[O-])c2-c2ccc(O)c(OC)c2)ccc1O`, the TGI in assay [1] was > 58.3 µM; in [2], 51.1 µM; in assay [3], > 68.5 µM; in [4] it was 80.1 µM; in [5] it was 42.3 µM; in [6], 9.8 µM. Further, the TGI in assay [7] is > 100 µM; in [8], > 85.3 µM; in assay [9], > 100 µM; in assay [10], 68.7 µM; in [11], 66.1 µM; in assay [12], > 74.4 µM. The TGI in assay [13] was > 100 µM; in [14], 47.2 µM; in assay [15], 30.2 µM; in assay [16], > 68.1 µM; in [17], > 89.6 µM; in assay [18] it was > 73.6 µM. The TGI in [19] is 67.8 µM; in assay [20], > 64.5 µM.

Regarding `CC(C)c1ccc2[nH]c(O)c(C3=Nc4ccccc4C3=O)c2c1`, the TGI was 12.3 µM in [1]; 6.71 µM in assay [2]; 68 µM in assay [3]; 57.2 µM in assay [4]; > 100 µM in assay [5]; 54.5 µM in assay [6]. Besides, the TGI in assay [7] was 53.8 µM; in assay [8] it was > 100 µM; in [9], 18.7 µM; in assay [10] it was > 100 µM; in assay [11], 41.4 µM; in assay [12], > 100 µM. In addition, the TGI in assay [13] was > 100 µM; in assay [14] it was > 100 µM; in assay [15], 97 µM; in assay [16], > 100 µM; in assay [17], > 100 µM; in [18] it was > 100 µM. In addition, the figures for the TGI in [19] and in assay [20] were 12.8 µM and 54.8 µM, respectively.

With `C1=NCCNCCN=Cc2ccccc2OCc2cccc(n2)COc2ccccc21`, the TGI in assay [1] is > 39.1 µM; in [2] it was > 100 µM; in assay [3], > 100 µM; in assay [4], > 100 µM; in assay [5], 24.8 µM; in [6] it was > 100 µM. Further, the TGI is > 65.3 µM in assay [7]; > 75.9 µM in assay [8]; > 75.7 µM in assay [9]; > 100 µM in assay [10]; > 39.7 µM in assay [11]; > 100 µM in [12]. For the same compound, the TGI in [13] was > 46.6 µM; in assay [14] it was > 95.6 µM; in assay [15], > 66.8 µM; in assay [16], 21.1 µM; in assay [17], > 100 µM; in assay [18], > 100 µM. Also, the results for the TGI in assay [19] and in assay [20] were 99.7 µM and > 95.3 µM, respectively.

With `Cc1ccc(S(=O)(=O)NC2=NS(=O)(=O)c3cc(C)c(Cl)cc3S2)cc1`, the TGI in assay [1], in assay [2], in [3], in assay [4], in [5] and in [6] was > 100 µM in each case. Besides, the TGI in [7], in assay [8], in assay [9], in assay [10], in assay [11] and in assay [12] was > 100 µM in each case. In addition, the TGI in assay [13], in assay [14], in assay [15], in [16], in assay [17] and in [18] was > 100 µM each time. For the same compound, the TGI in [19] and in [20] was > 100 µM in each case.

`CN(C)/C=C/c1nnnn1-c1ccc(I)cc1`: the TGI in assay [1] was > 100 µM; in assay [2], 59.6 µM; in [3] it was 23.5 µM; in assay [4] it was 59.2 µM; in assay [5], 54.4 µM; in assay [6] it was 41.6 µM. The TGI in assay [7] is 54.5 µM; in assay [8], 50.6 µM; in [9], 56.9 µM; in assay [10], 65.7 µM; in assay [11] it was 34.9 µM; in [12], > 100 µM. Also, the TGI in assay [13] amounted to 40.6 µM; in [14], 50.6 µM; in assay [15] it was 68.8 µM; in assay [16], 63.5 µM; in assay [17], 56.4 µM; in assay [18], 67.5 µM. The TGI worked out at 66 µM in [19] and 46.2 µM in assay [20].

In the case of `CC(C)(C)[Si](C)(C)OCC#C[C@@]1(O)CCCCC1CC(Sc1ccccc1)Sc1ccccc1` (stereo not given in full), the TGI in [1] came to 26.4 µM; in assay [2], 27.1 µM; in assay [3], 24 µM; in [4], 28.7 µM; in assay [5], 34.5 µM; in [6], 57.4 µM. The TGI in assay [7] worked out at 26.4 µM; in [8] it was 31.7 µM; in assay [9], 34.8 µM; in [10], 31.3 µM; in assay [11] it was 26.1 µM; in assay [12], 23.8 µM. The TGI in assay [13] turned out to be 35.5 µM; in [14], 23.2 µM; in assay [15], 26.8 µM; in assay [16] it was 39 µM; in assay [17], 27.2 µM; in [18] it was 29.5 µM. Moreover, the TGI in assay [19] was found to be 29.2 µM; in assay [20], 26.3 µM.

As for `CCCCCCCCCC1CC(=O)NCC(=O)NC(C(C)C)C(=O)NC(CC(C)C)C(=O)NC(C)C(=O)NC(C(C)C)C(=O)O1` (stereo not given), the TGI was 35 µM in [1]; > 94.9 µM in [2]; > 66.3 µM in assay [3]; > 48.2 µM in assay [4]; > 100 µM in assay [5]; > 92.4 µM in assay [6]. Moreover, the TGI was 28.8 µM in assay [7]; > 33.6 µM in assay [8]; > 69.1 µM in assay [9]; 36.6 µM in [10]; 29.7 µM in assay [11]; 80.2 µM in assay [12]. The TGI is > 100 µM in assay [13]; > 100 µM in [14]; 35.2 µM in assay [15]; > 100 µM in assay [16]; > 64 µM in [17]; > 88 µM in assay [18]. For the same compound, the TGI in assay [19] worked out at 25.4 µM; in assay [20], 22.4 µM.
